{"source": "PubChem BioAssay AID1259407", "about": "(Chemical Carcinogenesis Research Information System (CCRIS), 2018)", "system": "CCRIS mutagenicity, Ames/micronucleus/aberration tests", "assay": "CCRIS mutagenicity studies", "key": {"[1]": {"conditions": "Test System: AMES SALMONELLA TYPHIMURIUM, Strain/Indicator: TA98, Metabolic Activation: NONE, Method: STANDARD PLATE"}, "[2]": {"conditions": "Test System: AMES SALMONELLA TYPHIMURIUM, Strain/Indicator: TA100, Metabolic Activation: NONE, Method: STANDARD PLATE"}, "[3]": {"conditions": "Test System: AMES SALMONELLA TYPHIMURIUM, Strain/Indicator: TA98, Metabolic Activation: NONE, Method: PREINCUBATION"}, "[4]": {"conditions": "Test System: AMES SALMONELLA TYPHIMURIUM, Strain/Indicator: TA100, Metabolic Activation: NONE, Method: PREINCUBATION"}}, "note": "Active and inactive are the calls of the source. No rule for the calls is given here.", "data": [{"smiles": "CC(CN1CC(=O)NC(=O)C1)N1CC(=O)NC(=O)C1", "note": "(stereo not given)", "values": [{"measurement": "mutagenic call", "setting": "[1]", "value": "inactive; negative"}, {"measurement": "mutagenic call", "setting": "Test System: AMES SALMONELLA TYPHIMURIUM, Strain/Indicator: TA98, Metabolic Activation: RAT, LIVER, S-9, AROCLOR 1254, Method: STANDARD PLATE", "value": "inactive; negative"}, {"measurement": "mutagenic call", "setting": "[2]", "value": "inactive; negative"}, {"measurement": "mutagenic call", "setting": "Test System: AMES SALMONELLA TYPHIMURIUM, Strain/Indicator: TA100, Metabolic Activation: RAT, LIVER, S-9, AROCLOR 1254, Method: STANDARD PLATE", "value": "inactive; negative"}, {"measurement": "mutagenic call", "setting": "Test System: AMES SALMONELLA TYPHIMURIUM, Strain/Indicator: TA1535, Metabolic Activation: NONE, Method: STANDARD PLATE", "value": "inactive; negative"}, {"measurement": "mutagenic call", "setting": "Test System: AMES SALMONELLA TYPHIMURIUM, Strain/Indicator: TA1535, Metabolic Activation: RAT, LIVER, S-9, AROCLOR 1254, Method: STANDARD PLATE", "value": "inactive; negative"}, {"measurement": "mutagenic call", "setting": "Test System: AMES SALMONELLA TYPHIMURIUM, Strain/Indicator: TA1537, Metabolic Activation: NONE, Method: STANDARD PLATE", "value": "inactive; negative"}, {"measurement": "mutagenic call", "setting": "Test System: AMES SALMONELLA TYPHIMURIUM, Strain/Indicator: TA1537, Metabolic Activation: RAT, LIVER, S-9, AROCLOR 1254, Method: STANDARD PLATE", "value": "inactive; negative"}, {"measurement": "mutagenic call", "setting": "Test System: AMES SALMONELLA TYPHIMURIUM, Strain/Indicator: TA1538, Metabolic Activation: NONE, Method: STANDARD PLATE", "value": "inactive; negative"}, {"measurement": "mutagenic call", "setting": "Test System: AMES SALMONELLA TYPHIMURIUM, Strain/Indicator: TA1538, Metabolic Activation: RAT, LIVER, S-9, AROCLOR 1254, Method: STANDARD PLATE", "value": "inactive; negative"}, {"measurement": "mutagenic call", "setting": "Test System: CHINESE HAMSTER V-79, Strain/Indicator: V-79/8-AZAGUANINE, Metabolic Activation: NONE, Method: STANDARD PLATE", "value": "active; positive"}, {"measurement": "mutagenic call", "setting": "Test System: MOUSE LYMPHOMA, Strain/Indicator: L5178Y (TK+/TK-), Metabolic Activation: NONE, Method: SUSPENSION/PLATE", "value": "active; positive"}]}, {"smiles": "c1ccsc1", "values": [{"measurement": "mutagenic call", "setting": "Test System: AMES SALMONELLA TYPHIMURIUM, Strain/Indicator: TA97, Metabolic Activation: HAMSTER, LIVER, AROCLOR 1254 (10%), Method: PREINCUBATION", "value": "inactive; negative"}, {"measurement": "mutagenic call", "setting": "Test System: AMES SALMONELLA TYPHIMURIUM, Strain/Indicator: TA97, Metabolic Activation: HAMSTER, LIVER, S-9, AROCLOR 1254 (30%), Method: PREINCUBATION", "value": "inactive; negative"}, {"measurement": "mutagenic call", "setting": "Test System: AMES SALMONELLA TYPHIMURIUM, Strain/Indicator: TA97, Metabolic Activation: NONE, Method: PREINCUBATION", "value": "inactive; negative"}, {"measurement": "mutagenic call", "setting": "Test System: AMES SALMONELLA TYPHIMURIUM, Strain/Indicator: TA97, Metabolic Activation: RAT, LIVER, S-9, AROCLOR 1254 (10%), Method: PREINCUBATION", "value": "inactive; negative"}, {"measurement": "mutagenic call", "setting": "Test System: AMES SALMONELLA TYPHIMURIUM, Strain/Indicator: TA97, Metabolic Activation: RAT, LIVER, S-9, AROCLOR 1254 (30%), Method: PREINCUBATION", "value": "inactive; negative"}, {"measurement": "mutagenic call", "setting": "Test System: AMES SALMONELLA TYPHIMURIUM, Strain/Indicator: TA98, Metabolic Activation: HAMSTER, LIVER, S-9, AROCLOR 1254 (10%), Method: PREINCUBATION", "value": "inactive; negative"}, {"measurement": "mutagenic call", "setting": "Test System: AMES SALMONELLA TYPHIMURIUM, Strain/Indicator: TA98, Metabolic Activation: HAMSTER, LIVER, S-9, AROCLOR 1254 (30%), Method: PREINCUBATION", "value": "inactive; negative"}, {"measurement": "mutagenic call", "setting": "[3]", "value": "inactive; negative"}, {"measurement": "mutagenic call", "setting": "Test System: AMES SALMONELLA TYPHIMURIUM, Strain/Indicator: TA98, Metabolic Activation: RAT, LIVER, S-9, AROCLOR 1254 (10%), Method: PREINCUBATION", "value": "inactive; negative"}, {"measurement": "mutagenic call", "setting": "Test System: AMES SALMONELLA TYPHIMURIUM, Strain/Indicator: TA98, Metabolic Activation: RAT, LIVER, S-9, AROCLOR 1254 (30%), Method: PREINCUBATION", "value": "inactive; negative"}, {"measurement": "mutagenic call", "setting": "Test System: AMES SALMONELLA TYPHIMURIUM, Strain/Indicator: TA98, Metabolic Activation: RAT, LIVER, S-9, AROCLOR 1254, Method: PREINCUBATION", "value": "inactive; negative"}, {"measurement": "mutagenic call", "setting": "Test System: AMES SALMONELLA TYPHIMURIUM, Strain/Indicator: TA100, Metabolic Activation: HAMSTER, LIVER, S-9, AROCLOR 1254 (10%), Method: PREINCUBATION", "value": "inactive; negative"}, {"measurement": "mutagenic call", "setting": "Test System: AMES SALMONELLA TYPHIMURIUM, Strain/Indicator: TA100, Metabolic Activation: HAMSTER, LIVER, S-9, AROCLOR 1254 (30%), Method: PREINCUBATION", "value": "inactive; negative"}, {"measurement": "mutagenic call", "setting": "[4]", "value": "inactive; negative"}, {"measurement": "mutagenic call", "setting": "Test System: AMES SALMONELLA TYPHIMURIUM, Strain/Indicator: TA100, Metabolic Activation: RAT, LIVER, S-9, AROCLOR 1254 (10%), Method: PREINCUBATION", "value": "inactive; negative"}, {"measurement": "mutagenic call", "setting": "Test System: AMES SALMONELLA TYPHIMURIUM, Strain/Indicator: TA100, Metabolic Activation: RAT, LIVER, S-9, AROCLOR 1254 (30%), Method: PREINCUBATION", "value": "inactive; negative"}, {"measurement": "mutagenic call", "setting": "Test System: AMES SALMONELLA TYPHIMURIUM, Strain/Indicator: TA100, Metabolic Activation: RAT, LIVER, S-9, AROCLOR 1254, Method: PREINCUBATION", "value": "inactive; negative"}, {"measurement": "mutagenic call", "setting": "Test System: AMES SALMONELLA TYPHIMURIUM, Strain/Indicator: TA102, Metabolic Activation: NONE, Method: PREINCUBATION", "value": "inactive; negative"}, {"measurement": "mutagenic call", "setting": "Test System: AMES SALMONELLA TYPHIMURIUM, Strain/Indicator: TA102, Metabolic Activation: RAT, LIVER, S-9, AROCLOR 1254, Method: PREINCUBATION", "value": "inactive; negative"}, {"measurement": "mutagenic call", "setting": "Test System: AMES SALMONELLA TYPHIMURIUM, Strain/Indicator: TA1535, Metabolic Activation: HAMSTER, LIVER, S-9, AROCLOR 1254 (10%), Method: PREINCUBATION", "value": "inactive; negative"}, {"measurement": "mutagenic call", "setting": "Test System: AMES SALMONELLA TYPHIMURIUM, Strain/Indicator: TA1535, Metabolic Activation: HAMSTER, LIVER, S-9, AROCLOR 1254 (30%), Method: PREINCUBATION", "value": "inactive; negative"}, {"measurement": "mutagenic call", "setting": "Test System: AMES SALMONELLA TYPHIMURIUM, Strain/Indicator: TA1535, Metabolic Activation: NONE, Method: PREINCUBATION", "value": "inactive; negative"}, {"measurement": "mutagenic call", "setting": "Test System: AMES SALMONELLA TYPHIMURIUM, Strain/Indicator: TA1535, Metabolic Activation: RAT, LIVER, S-9, AROCLOR 1254 (10%), Method: PREINCUBATION", "value": "inactive; negative"}, {"measurement": "mutagenic call", "setting": "Test System: AMES SALMONELLA TYPHIMURIUM, Strain/Indicator: TA1535, Metabolic Activation: RAT, LIVER, S-9, AROCLOR 1254 (30%), Method: PREINCUBATION", "value": "inactive; negative"}, {"measurement": "mutagenic call", "setting": "Test System: AMES SALMONELLA TYPHIMURIUM, Strain/Indicator: TA1537, Metabolic Activation: HAMSTER, LIVER, S-9, AROCLOR 1254 (10%), Method: PREINCUBATION", "value": "inactive; negative"}, {"measurement": "mutagenic call", "setting": "Test System: AMES SALMONELLA TYPHIMURIUM, Strain/Indicator: TA1537, Metabolic Activation: NONE, Method: PREINCUBATION", "value": "inactive; negative"}, {"measurement": "mutagenic call", "setting": "Test System: AMES SALMONELLA TYPHIMURIUM, Strain/Indicator: TA1537, Metabolic Activation: RAT, LIVER, S-9, AROCLOR 1254 (10%), Method: PREINCUBATION", "value": "inactive; negative"}, {"measurement": "mutagenic call", "setting": "Test System: Mouse lymphoma, Strain/Indicator: L5178Y (tk+/tk-), Metabolic Activation: None, Method: Suspension/plate", "value": "active; positive"}, {"measurement": "mutagenic call", "setting": "Test System: Mouse lymphoma, Strain/Indicator: L5178Y (tk+/tk-), Metabolic Activation: Rat, Liver, S-9, Aroclor 1254, Method: Suspension/plate", "value": "active; inconclusive (previous evaluation positive)"}]}, {"smiles": "CC1(C)CCC[C@]2(C)[C@H]3CC=C(C=O)[C@@H](C=O)[C@]3(C)CC[C@@H]12", "values": [{"measurement": "mutagenic call", "setting": "[1]", "value": "inactive; negative"}, {"measurement": "mutagenic call", "setting": "[2]", "value": "inactive; negative"}, {"measurement": "mutagenic call", "setting": "Test System: AMES SALMONELLA TYPHIMURIUM, Strain/Indicator: TA2637, Metabolic Activation: NONE, Method: STANDARD PLATE", "value": "inactive; negative"}]}, {"smiles": "O=[N+]([O-])c1ccc2c(c1)Cc1cc(O)ccc1-2", "values": [{"measurement": "mutagenic call", "setting": "[3]", "value": "active; positive"}, {"measurement": "mutagenic call", "setting": "Test System: AMES SALMONELLA TYPHIMURIUM, Strain/Indicator: TA98, Metabolic Activation: S-9, Method: PREINCUBATION", "value": "active; positive"}]}, {"smiles": "Nc1ccc(Oc2cccc(Oc3ccc(N)cc3)c2)cc1", "values": [{"measurement": "mutagenic call", "setting": "[3]", "value": "inactive; negative"}, {"measurement": "mutagenic call", "setting": "Test System: AMES SALMONELLA TYPHIMURIUM, Strain/Indicator: TA98, Metabolic Activation: RAT, LIVER, S-9, PCB, Method: PREINCUBATION", "value": "active; positive"}, {"measurement": "mutagenic call", "setting": "[4]", "value": "inactive; negative"}, {"measurement": "mutagenic call", "setting": "Test System: AMES SALMONELLA TYPHIMURIUM, Strain/Indicator: TA100, Metabolic Activation: RAT, LIVER, S-9, PCB, Method: PREINCUBATION", "value": "active; positive"}]}]}
